Data as given in patent US4965280A, “Antifungal carbinols” (E. I. Du Pont de Nemours and Company, priority 1989, dated 1990).
≈ marks a conversion by molar mass, not a printed value.

Columns and labels:
Pythium aphanadermatum = assay: Example J cucumber damping off; type: in vivo; design: key to phytotoxicity entry, Ex. J: P: disease control was not measured due to phytoxicity; conditions: 5 kg/ha; for pest or weed control at 5000 g/ha: Pythium, 336 h, read-out: disease control rating, Ex. J
How it was run: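 This cucumber damping-off test used soil and seeds infested with a sand–cereal preparation carrying mycelium of Pythium aphanadermatum. Incubation took place in a growth chamber held at 30° C. for 14 days. Afterwards, the extent of disease was scored as a disease control rating.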

Rhizoctonia solani = assay: Example K cotton blight; type: in vivo; conditions: 336 h, 5 kg/ha, read-out: disease control rating, Ex. K
Method: […] Seeds and soil were then inoculated with a mixture of sand, cereal and mycelium of the fungus Rhizoctonia solani, causal agent of cotton blight, and incubated in a growth chamber at 30° C. for 14 days. Disease ratings were then made.

[1] = system: Erysiphe graminis f. sp. tritici; assay: Example D wheat powdery mildew; type: in vivo; conditions: Blumeria graminis, 144 h; 100 PPM; read-out: disease control rating, Ex. D
How it was run: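 Seedling wheat was treated by spraying to run-off; formulation used acetone as co-solvent (6% final) and TREM 014 surfactant at 250 ppm, with compound at 100 or 20 ppm.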

[2] = system: Candida albicans ATCC 11651; assay: In vitro antifungal MIC, microtiter broth dilution; conditions: Candida albicans, ATCC11651, 24 h, read-out: MIC values, C. albicans, 30°, 24 hours
BLACK NIGHTSHAD = assay: Test E; type: in vivo, Solanum nigrum
Botrytis cinerea = assay: Example C bean grey mold; type: in vivo; conditions: Botrytis cinerea, 24 h, 100 PPM; read-out: disease control rating, Ex. C
How it was run: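 Spray rates: 100 and 20 ppm. Vehicle: purified water with 6% acetone by final volume plus 250 ppm TREM 014 (polyhydric alcohol esters). Host plants, broad bean seedlings, were wetted until run-off.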

Plasmorpara viticola = assay: Example I grape downy mildew; type: in vivo; conditions: read-out: disease control rating, Ex. I
How it was run: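 Applied as a foliar spray to run-off on grape seedlings, the compounds were formulated at 100 or 20 ppm in water containing 250 ppm TREM 014, with acetone making up 6% of the volume.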

REDROOT PIGWEED = assay: Test E; type: in vivo, Amaranthus retroflexus
Phytophthora infestans = assay: whole plant or invertebrate; type: in vivo; conditions: Phytophthora infestans, in Solanum lycopersicum, read-out: disease control rating, Ex. H, 100 PPM
YELLOW NUTSEDGE = assay: Test C rice paddy; type: in vivo, Cyperus esculentus; conditions: 21 days
Source text: (§1) Sixteen cm diameter Airlite plastic pots were partially filled with Tama slit loam soil and the soil saturated with water. Japonica and Indica rice seedlings a the 2.0 to 2.5 leaf stage were transplanted into 1/3 of the pots. Into another third of the pots were transplanted seedling or sprouted tubers of water plantain (Alisma trivale), Scripus (Scirpus paludosus), Cyperus (Cyperus esculentus), and arrowhead (Sagittaria spp.). The remaining pots were planted with barnyardgrass (Echinochloa crusgalli) seeds and sprouted tubes of water chestnut (Eleocharis spp.). These weeds all represent major rice weeds or genera of weeds important in rice. Three to four days after planting, the water level was raised to 3 cm (about 1200 ml/pot) and maintained a this level throughout the test. Chemical treatments were applied directly to the paddy water, within 24 hours of raising the water, after being formulated in a nonphytotoxic solvent. The pots were maintained in the greenhouse.

RICE INDICA EFF = assay: Test C rice paddy; type: in vivo; conditions: Oryza sativa, 504 h, 21 days, read-out: plant response; for pest or weed control at 64 g/ha: 0064 G/HA; for pest or weed control at 125 g/ha: 0125 G/HA; for pest or weed control at 250 g/ha: 0250 G/HA; for pest or weed control at 500 g/ha: 0500 G/HA
Source text: as §1

WATERCHESTNUT = assay: Test C rice paddy; type: in vivo, Eleocharis spp.; conditions: Eleocharis, 504 h, 21 days, read-out: plant response; for pest or weed control at 64 g/ha: 0064 G/HA; for pest or weed control at 125 g/ha: 0125 G/HA; for pest or weed control at 250 g/ha: 0250 G/HA; for pest or weed control at 500 g/ha: 0500 G/HA
Source text: as §1

[3] = system: Fusarium oxysporum f. sp. cucumerinum; assay: Example L cucumber wilt; type: in vivo; conditions: 336 h, 5 kg/ha, read-out: disease control rating, Ex. L
Method: […] Seeds and soil were then inoculated with a mixture of sand, cereal and mycelium of the fungus Fusarium oxysporum f. sp. cucumerinum, causal agent of cucumber wilt, and incubated in a growth chamber at 30° C. for 14 days. Disease ratings were then made.

## C=C(c1ccc(F)cc1)C(O)(Cn1cncn1)c1ccc(F)cc1F (centres unmarked) [Example 4, 2-(2,4-Difluorophenyl)-3-(4-fluorophenyl)-1-(1H-1,2,4-triazol-1-yl)-3-buten-2-ol]
Pythium aphanadermatum
  pest or weed control at 5000 g/ha: 0%
Rhizoctonia solani
  pest or weed control at 5000 g/ha: 0%
[1]
  pest or weed control at 100 ppm: 100%
[2]
  MIC: 0.03 µg/mL (≈ 0.0869 µM)
BLACK NIGHTSHAD; POSTEMERGENCE 0064 GM/HA
  plant response: 10%
BLACK NIGHTSHAD; POSTEMERGENCE 0125 GM/HA
  plant response: 30%
BLACK NIGHTSHAD; POSTEMERGENCE 0250 GM/HA
  plant response: 70%
BLACK NIGHTSHAD; POSTEMERGENCE 0500 GM/HA
  plant response: 90%
BLACK NIGHTSHAD; PREEMERGENCE 0500 GM/HA
  plant response: 100%
Botrytis cinerea
  pest or weed control at 100 ppm: 88%
Plasmorpara viticola
  pest or weed control at 100 ppm: 81%
REDROOT PIGWEED; POSTEMERGENCE 0064 GM/HA
  plant response: 20%
REDROOT PIGWEED; POSTEMERGENCE 0125 GM/HA
  plant response: 40%
REDROOT PIGWEED; POSTEMERGENCE 0250 GM/HA
  plant response: 90%
REDROOT PIGWEED; POSTEMERGENCE 0500 GM/HA
  plant response: 90%
REDROOT PIGWEED; PREEMERGENCE 0500 GM/HA
  plant response: 100%
Phytophthora infestans
  pest or weed control at 100 ppm: 0%

## C=C(c1ccccc1)C(O)(Cn1cncn1)c1ccc(Cl)cc1 (centres unmarked) [Example 51, 2-(4-Chlorophenyl)-3-phenyl-1-(1H-1,2,4-triazol-1-yl)-3-buten-2-ol]
Pythium aphanadermatum
  phytotoxicity entry, Ex. J: P
[1]
  pest or weed control at 100 ppm: 100%
[2]
  MIC: 0.03 µg/mL (≈ 0.0921 µM)
BLACK NIGHTSHAD; POSTEMERGENCE 0064 GM/HA
  plant response: 0%
BLACK NIGHTSHAD; POSTEMERGENCE 0125 GM/HA
  plant response: 0%
BLACK NIGHTSHAD; POSTEMERGENCE 0250 GM/HA
  plant response: 40%
BLACK NIGHTSHAD; POSTEMERGENCE 0500 GM/HA
  plant response: 60%
BLACK NIGHTSHAD; PREEMERGENCE 0500 GM/HA
  plant response: 100%
Botrytis cinerea
  pest or weed control at 100 ppm: 96%
Plasmorpara viticola
  pest or weed control at 100 ppm: 0%
REDROOT PIGWEED; POSTEMERGENCE 0064 GM/HA
  plant response: 30%
REDROOT PIGWEED; POSTEMERGENCE 0125 GM/HA
  plant response: 50%
REDROOT PIGWEED; POSTEMERGENCE 0250 GM/HA
  plant response: 60%
REDROOT PIGWEED; POSTEMERGENCE 0500 GM/HA
  plant response: 90%
REDROOT PIGWEED; PREEMERGENCE 0500 GM/HA
  plant response: 70%
Phytophthora infestans
  pest or weed control at 100 ppm: 0%

## C=C(c1ccc(F)cc1)C(O)(Cn1cncn1)c1ccccc1F (centres unmarked) [Example 644]
Pythium aphanadermatum
  pest or weed control at 5000 g/ha: 0%
Rhizoctonia solani
  pest or weed control at 5000 g/ha: 0%
[1]
  pest or weed control at 100 ppm: 100%
[2]
  MIC: 0.03 µg/mL (≈ 0.0916 µM)
BLACK NIGHTSHAD; POSTEMERGENCE 0064 GM/HA
  plant response: 0%
BLACK NIGHTSHAD; POSTEMERGENCE 0125 GM/HA
  plant response: 0%
BLACK NIGHTSHAD; POSTEMERGENCE 0250 GM/HA
  plant response: 10%
BLACK NIGHTSHAD; POSTEMERGENCE 0500 GM/HA
  plant response: 20%
BLACK NIGHTSHAD; PREEMERGENCE 0500 GM/HA
  plant response: 0%
Botrytis cinerea
  pest or weed control at 100 ppm: 94%
Plasmorpara viticola
  pest or weed control at 100 ppm: 0%
REDROOT PIGWEED; POSTEMERGENCE 0064 GM/HA
  plant response: 50%
REDROOT PIGWEED; POSTEMERGENCE 0125 GM/HA
  plant response: 50%
REDROOT PIGWEED; POSTEMERGENCE 0250 GM/HA
  plant response: 50%
REDROOT PIGWEED; POSTEMERGENCE 0500 GM/HA
  plant response: 60%
REDROOT PIGWEED; PREEMERGENCE 0500 GM/HA
  plant response: 80%
Phytophthora infestans
  pest or weed control at 100 ppm: 23%

## C=C(c1ccc(Cl)cc1)C(O)(Cn1cncn1)c1ccccc1F (centres unmarked) [Example 669]
YELLOW NUTSEDGE; 0064 G/HA
  plant response: 0
YELLOW NUTSEDGE; 0125 G/HA
  plant response: 0
YELLOW NUTSEDGE; 0250 G/HA
  plant response: 0
YELLOW NUTSEDGE; 0500 G/HA
  plant response: 60
YELLOW NUTSEDGE; 1000 G/HA
  plant response: 80
RICE INDICA EFF
  pest or weed control at 64 g/ha: 0%
  pest or weed control at 125 g/ha: 0%
  pest or weed control at 250 g/ha: 0%
  pest or weed control at 500 g/ha: 0%
  pest or weed control at 1000 g/ha: 0%
Pythium aphanadermatum
  pest or weed control at 5000 g/ha: 0%
WATERCHESTNUT
  pest or weed control at 64 g/ha: 0%
  pest or weed control at 125 g/ha: 0%
  pest or weed control at 250 g/ha: 0%
  pest or weed control at 500 g/ha: 0%
  pest or weed control at 1000 g/ha: 0%
Rhizoctonia solani
  pest or weed control at 5000 g/ha: 0%
[1]
  pest or weed control at 100 ppm: 100%
[2]
  MIC: 0.03 µg/mL (≈ 0.0873 µM)
Botrytis cinerea
  pest or weed control at 100 ppm: 90%
Plasmorpara viticola
  pest or weed control at 100 ppm: 0%
Phytophthora infestans
  pest or weed control at 100 ppm: 0%

## C=C(c1ccc(F)cc1)C(O)(Cn1ncnc1S)c1ccc(F)cc1F (centres unmarked) [Example 1304]
[3]
  pest or weed control at 5000 g/ha: 0%
YELLOW NUTSEDGE; 0064 G/HA
  plant response: 0
YELLOW NUTSEDGE; 0125 G/HA
  plant response: 0
YELLOW NUTSEDGE; 0250 G/HA
  plant response: 0
YELLOW NUTSEDGE; 0500 G/HA
  plant response: 0
YELLOW NUTSEDGE; 1000 G/HA
  plant response: 0
RICE INDICA EFF
  pest or weed control at 64 g/ha: 0%
  pest or weed control at 125 g/ha: 0%
  pest or weed control at 250 g/ha: 0%
  pest or weed control at 500 g/ha: 0%
  pest or weed control at 1000 g/ha: 40%
Pythium aphanadermatum
  pest or weed control at 5000 g/ha: 0%
WATERCHESTNUT
  pest or weed control at 64 g/ha: 0%
  pest or weed control at 125 g/ha: 0%
  pest or weed control at 250 g/ha: 0%
  pest or weed control at 500 g/ha: 0%
  pest or weed control at 1000 g/ha: 50%
Rhizoctonia solani
  pest or weed control at 5000 g/ha: 0%
[1]
  pest or weed control at 100 ppm: 100%
Botrytis cinerea
  pest or weed control at 100 ppm: 97%
Plasmorpara viticola
  pest or weed control at 100 ppm: 18%
Phytophthora infestans
  pest or weed control at 100 ppm: 0%

## C=C(c1ccc(F)cc1)C(O)(Cn1ncnc1I)c1ccc(F)cc1F (centres unmarked) [Example 1381]
[3]
  pest or weed control at 5000 g/ha: 0%
YELLOW NUTSEDGE; 0064 G/HA
  plant response: 0
YELLOW NUTSEDGE; 0125 G/HA
  plant response: 0
YELLOW NUTSEDGE; 0250 G/HA
  plant response: 0
YELLOW NUTSEDGE; 0500 G/HA
  plant response: 40
YELLOW NUTSEDGE; 1000 G/HA
  plant response: 50
RICE INDICA EFF
  pest or weed control at 64 g/ha: 0%
  pest or weed control at 125 g/ha: 0%
  pest or weed control at 250 g/ha: 20%
  pest or weed control at 500 g/ha: 40%
  pest or weed control at 1000 g/ha: 60%
Pythium aphanadermatum
  pest or weed control at 5000 g/ha: 0%
WATERCHESTNUT
  pest or weed control at 64 g/ha: 0%
  pest or weed control at 125 g/ha: 0%
  pest or weed control at 250 g/ha: 0%
  pest or weed control at 500 g/ha: 0%
  pest or weed control at 1000 g/ha: 0%
Rhizoctonia solani
  pest or weed control at 5000 g/ha: 50%
[1]
  pest or weed control at 100 ppm: 98%
Botrytis cinerea
  pest or weed control at 100 ppm: 97%
Plasmorpara viticola
  pest or weed control at 100 ppm: 78%
Phytophthora infestans
  pest or weed control at 100 ppm: 0%
